ChEMBL document CHEMBL5108015, “4,6-Disubstituted-1H-Indazole-4-Amine derivatives with immune-chemotherapy effect and in vivo antitumor activity” (Eur J Med Chem, 2022)

Tests used:
[1] = target: T1, Tryptophan 2,3-dioxygenase (Homo sapiens, UniProt P48775); test: Inhibition of human TDO
Target sequence in this assay (P48775 whole entry): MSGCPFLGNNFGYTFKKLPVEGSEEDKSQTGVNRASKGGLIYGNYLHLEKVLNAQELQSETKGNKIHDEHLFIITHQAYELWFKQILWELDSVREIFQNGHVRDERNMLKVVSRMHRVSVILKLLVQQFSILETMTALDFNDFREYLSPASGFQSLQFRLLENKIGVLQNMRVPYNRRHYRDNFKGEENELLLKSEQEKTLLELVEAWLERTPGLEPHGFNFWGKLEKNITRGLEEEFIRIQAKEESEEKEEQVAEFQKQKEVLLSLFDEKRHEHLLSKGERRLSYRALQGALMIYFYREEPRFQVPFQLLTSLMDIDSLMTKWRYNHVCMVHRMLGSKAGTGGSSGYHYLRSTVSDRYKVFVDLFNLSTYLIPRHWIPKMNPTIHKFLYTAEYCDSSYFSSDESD

[2] = target: T2, Indoleamine 2,3-dioxygenase 1 (Homo sapiens, UniProt P14902); test: Inhibition of human IDO1
Target sequence in this assay (P14902 whole entry): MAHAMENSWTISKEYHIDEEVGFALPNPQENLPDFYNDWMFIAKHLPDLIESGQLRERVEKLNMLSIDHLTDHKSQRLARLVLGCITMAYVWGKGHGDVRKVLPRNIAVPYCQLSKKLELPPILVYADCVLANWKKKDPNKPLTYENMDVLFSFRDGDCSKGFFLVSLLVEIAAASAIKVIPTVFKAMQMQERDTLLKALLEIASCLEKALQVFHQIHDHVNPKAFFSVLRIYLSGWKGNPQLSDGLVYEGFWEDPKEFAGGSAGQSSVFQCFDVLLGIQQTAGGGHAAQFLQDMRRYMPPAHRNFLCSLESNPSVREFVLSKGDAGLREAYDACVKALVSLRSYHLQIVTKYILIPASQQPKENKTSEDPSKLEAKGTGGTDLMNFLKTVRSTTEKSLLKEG

B16 = test: Cytotoxicity against mouse B16 cells assessed as inhibition of cell growth incubated for 24 hrs by MTT assay; type: functional, cell-based; conditions: B16, 24 h
[3] = target: T1, Tryptophan 2,3-dioxygenase; test: (§1) Inhibition of N-terminal hexa-histidine tagged human TDO (19 to 388 residues) expressed in Escherichia coli Transetta (DE3) using L-tryptophan as substrate preincubated with enzyme for 10 mins followed by substrate addition and measured after 30 to 60 mins by microplate reader analysis
Target sequence in this assay (P48775 whole entry): as the sequence (P48775 whole entry) above

MOLM-13 = test: Cytotoxicity against human MOLM-13 cells assessed as inhibition of cell growth incubated for 24 hrs by MTT assay; type: functional, cell-based; conditions: MOLM-13, 24 h
[4] = target: T1, Tryptophan 2,3-dioxygenase; test: as §1, with “as substrate at 10 uM preincubated with” for “as substrate preincubated with”, “reader analysis relative to control” for “reader analysis”; conditions: time 40-70 min
Target sequence in this assay (P48775 whole entry, looked up): as the sequence (P48775 whole entry) above

HepG2 = test: Cytotoxicity against human HepG2 cells assessed as inhibition of cell growth incubated for 24 hrs by MTT assay; type: functional, cell-based; conditions: HepG2, 24 h
Jurkat = test: Cytotoxicity against human Jurkat cells assessed as inhibition of cell growth incubated for 24 hrs by MTT assay; type: functional, cell-based
[5] = target: T2, Indoleamine 2,3-dioxygenase 1; test: (§2) Inhibition of N-terminal hexa-histidine tagged human IDO1 (12 to 403 residues) expressed in Escherichia coli Transetta (DE3) using L-tryptophan as substrate at 10 uM preincubated with enzyme for 10 mins followed by substrate addition and measured after 30 to 60 mins by microplate reader analysis relative to control; conditions: time 40-70 min
Target sequence in this assay (P14902 whole entry, looked up): as the sequence (P14902 whole entry) above

[6] = target: T1, Tryptophan 2,3-dioxygenase; test: as §1, with “as substrate at 100 uM preincubated with” for “as substrate preincubated with”, “reader analysis relative to control” for “reader analysis”; conditions: time 40-70 min
Target sequence in this assay (P48775 whole entry, looked up): as the sequence (P48775 whole entry) above

H22 = test: Cytotoxicity against mouse H22 cells assessed as inhibition of cell growth incubated for 24 hrs by MTT assay; type: functional, cell-based; conditions: H22, 24 h
[7] = target: T2, Indoleamine 2,3-dioxygenase 1; test: Inhibition of N-terminal hexa-histidine tagged human IDO1 (12 to 403 residues) expressed in Escherichia coli Transetta (DE3) using L-tryptophan as substrate preincubated with enzyme for 10 mins followed by substrate addition and measured after 30 to 60 mins by microplate reader analysis
Target sequence in this assay (P14902 whole entry): as the sequence (P14902 whole entry) above

[8] = target: T2, Indoleamine 2,3-dioxygenase 1; test: as §2, with “at 100” for “at 10”; conditions: time 40-70 min
Target sequence in this assay (P14902 whole entry, looked up): as the sequence (P14902 whole entry) above

[9] = Cytotoxicity against […] cells assessed as inhibition of cell growth incubated for 24 hrs by MTT assay; type: functional, cell-based; conditions: Mus musculus, Hepa1-6, 24 h
CT26 = test: Antitumor activity against mouse CT26 cells implanted in BALB/c mouse assessed as inhibition of tumor volume at 30 mg/kg, IG administered every one day for 9 days and measured every 3 days by vernier caliper analysis relative to control; type: functional; conditions: CT26, po, 216 h, time 9 day
HEK293 = test: Cytotoxicity against HEK293 cells assessed as inhibition of cell growth at <10 uM incubated for 24 hrs by MTT assay; type: toxicity, cell-based; conditions: human, hek293, 24 h
[10] = target: Serine/threonine-protein kinase B-raf (Homo sapiens) (UniProt P15056); test: Inhibition of human B-Raf at 2 uM by DiscoveryX Kinomescan assay relative to control
[11] = target: Tyrosine-protein kinase JAK2 (Homo sapiens) (UniProt O60674); test: Inhibition of human JAK2 at 2 uM by DiscoveryX Kinomescan assay relative to control
[12] = target: Tyrosine-protein kinase JAK1 (Homo sapiens) (UniProt P23458); test: Inhibition of human JAK1 at 2 uM by DiscoveryX Kinomescan assay relative to control
[13] = target: RAF proto-oncogene serine/threonine-protein kinase (Homo sapiens) (UniProt P04049); test: Inhibition of human c-Raf at 2 uM by DiscoveryX Kinomescan assay relative to control
[14] = target: Tyrosine-protein kinase receptor UFO (Homo sapiens) (UniProt P30530); test: Inhibition of human AXL at 2 uM by DiscoveryX Kinomescan assay relative to control
[15] = target: Tyrosine-protein kinase BTK (Homo sapiens) (UniProt Q06187); test: Inhibition of human BTK at 2 uM by DiscoveryX Kinomescan assay relative to control
[16] = target: DNA-dependent protein kinase catalytic subunit (Homo sapiens) (UniProt P78527); test: Inhibition of human DNA-PK at 2 uM by DiscoveryX Kinomescan assay relative to control
[17] = target: Vascular endothelial growth factor receptor 2 (Homo sapiens) (UniProt P35968); test: Inhibition of human KDR at 2 uM by DiscoveryX Kinomescan assay relative to control
[18] = target: Serine/threonine-protein kinase pim-1 (Homo sapiens) (UniProt P11309); test: Inhibition of human PIM-1 at 2 uM by DiscoveryX Kinomescan assay relative to control
[19] = target: Mast/stem cell growth factor receptor Kit (Homo sapiens) (UniProt P10721); test: Inhibition of human c-KIT at 2 uM by DiscoveryX Kinomescan assay relative to control
[20] = target: Tyrosine-protein kinase Lyn (Homo sapiens) (UniProt P07948); test: Inhibition of human LYN at 2 uM by DiscoveryX Kinomescan assay relative to control
[21] = target: Tyrosine-protein kinase JAK3 (Homo sapiens) (UniProt P52333); test: Inhibition of human JAK3 at 2 uM by DiscoveryX Kinomescan assay relative to control
[22] = tested on: Receptor-type tyrosine-protein kinase FLT3 (Homo sapiens), P36888 [D835Y]; test: Inhibition of human FLT3 D835Y mutant at 2 uM by DiscoveryX Kinomescan assay relative to control
[23] = target: Tyrosine-protein kinase Yes (Homo sapiens) (UniProt P07947); test: Inhibition of human YES at 2 uM by DiscoveryX Kinomescan assay relative to control
[24] = target: Serine/threonine-protein kinase pim-2 (Homo sapiens) (UniProt Q9P1W9); test: Inhibition of human PIM-2 at 2 uM by DiscoveryX Kinomescan assay relative to control
[25] = target: Receptor-type tyrosine-protein kinase FLT3 (Homo sapiens) (UniProt P36888); test: Inhibition of human FLT3 at 2 uM by DiscoveryX Kinomescan assay relative to control
[26] = target: Platelet-derived growth factor receptor alpha (Homo sapiens) (UniProt P16234); test: Inhibition of human PDGFRalpha at 2 uM by DiscoveryX Kinomescan assay relative to control

RAF proto-oncogene serine/threonine-protein kinase (Homo sapiens), sequence (P04049 whole entry): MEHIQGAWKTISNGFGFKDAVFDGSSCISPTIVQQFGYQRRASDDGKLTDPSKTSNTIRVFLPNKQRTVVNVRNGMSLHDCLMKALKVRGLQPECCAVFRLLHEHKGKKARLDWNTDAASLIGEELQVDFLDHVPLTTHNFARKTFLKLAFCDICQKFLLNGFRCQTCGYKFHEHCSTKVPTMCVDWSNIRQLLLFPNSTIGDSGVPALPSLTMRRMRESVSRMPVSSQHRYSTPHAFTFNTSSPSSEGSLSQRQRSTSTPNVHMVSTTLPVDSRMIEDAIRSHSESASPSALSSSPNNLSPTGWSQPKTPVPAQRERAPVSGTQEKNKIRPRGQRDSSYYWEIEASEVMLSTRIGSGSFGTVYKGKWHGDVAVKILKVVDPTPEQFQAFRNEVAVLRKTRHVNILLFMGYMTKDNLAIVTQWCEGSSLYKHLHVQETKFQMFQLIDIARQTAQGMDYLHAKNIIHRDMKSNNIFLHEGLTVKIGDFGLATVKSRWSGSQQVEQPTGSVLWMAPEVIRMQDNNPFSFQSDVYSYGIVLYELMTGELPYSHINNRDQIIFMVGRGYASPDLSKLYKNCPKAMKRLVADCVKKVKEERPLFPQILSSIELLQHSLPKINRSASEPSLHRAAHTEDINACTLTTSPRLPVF
Vascular endothelial growth factor receptor 2 (Homo sapiens), sequence (P35968 whole entry): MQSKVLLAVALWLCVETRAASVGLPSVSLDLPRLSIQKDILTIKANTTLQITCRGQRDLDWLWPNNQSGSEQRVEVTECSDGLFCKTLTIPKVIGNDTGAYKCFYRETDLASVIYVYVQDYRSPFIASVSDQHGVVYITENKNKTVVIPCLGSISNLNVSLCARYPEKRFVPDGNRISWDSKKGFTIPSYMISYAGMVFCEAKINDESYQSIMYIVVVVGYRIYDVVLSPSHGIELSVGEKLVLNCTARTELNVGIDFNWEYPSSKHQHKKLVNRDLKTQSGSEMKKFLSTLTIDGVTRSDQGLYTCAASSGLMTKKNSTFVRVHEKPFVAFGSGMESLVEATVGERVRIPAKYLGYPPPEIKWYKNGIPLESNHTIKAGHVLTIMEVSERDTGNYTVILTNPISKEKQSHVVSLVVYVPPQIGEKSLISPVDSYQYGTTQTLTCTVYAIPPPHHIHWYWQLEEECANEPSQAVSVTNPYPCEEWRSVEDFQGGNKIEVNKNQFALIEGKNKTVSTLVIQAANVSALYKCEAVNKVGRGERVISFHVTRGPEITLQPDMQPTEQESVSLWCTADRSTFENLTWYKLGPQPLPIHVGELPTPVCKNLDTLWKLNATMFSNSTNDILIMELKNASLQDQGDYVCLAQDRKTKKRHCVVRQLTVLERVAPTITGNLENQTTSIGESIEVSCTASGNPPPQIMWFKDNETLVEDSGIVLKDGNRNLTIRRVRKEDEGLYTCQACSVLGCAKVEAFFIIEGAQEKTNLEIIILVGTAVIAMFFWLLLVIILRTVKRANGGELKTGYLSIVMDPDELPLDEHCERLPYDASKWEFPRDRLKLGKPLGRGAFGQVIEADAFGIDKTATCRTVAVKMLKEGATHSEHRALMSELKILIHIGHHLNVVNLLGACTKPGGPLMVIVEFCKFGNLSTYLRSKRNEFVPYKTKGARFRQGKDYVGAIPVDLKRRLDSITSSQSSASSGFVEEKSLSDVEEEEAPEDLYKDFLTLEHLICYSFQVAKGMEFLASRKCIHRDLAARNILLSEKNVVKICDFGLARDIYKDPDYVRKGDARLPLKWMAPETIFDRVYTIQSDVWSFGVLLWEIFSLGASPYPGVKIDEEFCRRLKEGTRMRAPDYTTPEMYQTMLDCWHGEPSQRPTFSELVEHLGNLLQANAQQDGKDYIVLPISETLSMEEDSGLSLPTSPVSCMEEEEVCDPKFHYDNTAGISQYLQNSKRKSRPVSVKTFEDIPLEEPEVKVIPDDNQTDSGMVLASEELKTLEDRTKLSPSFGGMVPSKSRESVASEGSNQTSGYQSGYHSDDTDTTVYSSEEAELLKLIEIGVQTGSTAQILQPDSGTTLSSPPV
Tyrosine-protein kinase Yes (Homo sapiens), sequence (P07947 2-543 limits assumed): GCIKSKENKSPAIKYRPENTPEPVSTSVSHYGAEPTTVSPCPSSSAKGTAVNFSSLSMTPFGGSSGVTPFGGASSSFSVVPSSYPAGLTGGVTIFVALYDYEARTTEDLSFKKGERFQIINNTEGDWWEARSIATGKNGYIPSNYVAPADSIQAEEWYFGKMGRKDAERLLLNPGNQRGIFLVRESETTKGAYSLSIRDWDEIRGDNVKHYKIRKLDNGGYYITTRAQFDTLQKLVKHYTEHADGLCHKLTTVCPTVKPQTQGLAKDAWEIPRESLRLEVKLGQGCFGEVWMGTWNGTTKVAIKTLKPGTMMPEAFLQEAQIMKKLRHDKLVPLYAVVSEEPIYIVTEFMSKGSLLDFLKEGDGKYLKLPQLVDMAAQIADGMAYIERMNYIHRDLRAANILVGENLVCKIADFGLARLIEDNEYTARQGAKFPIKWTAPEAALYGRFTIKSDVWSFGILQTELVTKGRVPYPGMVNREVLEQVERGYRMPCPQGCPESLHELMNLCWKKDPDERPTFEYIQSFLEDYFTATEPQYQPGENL
Tyrosine-protein kinase Lyn (Homo sapiens), sequence (P07948 2-512 limits assumed): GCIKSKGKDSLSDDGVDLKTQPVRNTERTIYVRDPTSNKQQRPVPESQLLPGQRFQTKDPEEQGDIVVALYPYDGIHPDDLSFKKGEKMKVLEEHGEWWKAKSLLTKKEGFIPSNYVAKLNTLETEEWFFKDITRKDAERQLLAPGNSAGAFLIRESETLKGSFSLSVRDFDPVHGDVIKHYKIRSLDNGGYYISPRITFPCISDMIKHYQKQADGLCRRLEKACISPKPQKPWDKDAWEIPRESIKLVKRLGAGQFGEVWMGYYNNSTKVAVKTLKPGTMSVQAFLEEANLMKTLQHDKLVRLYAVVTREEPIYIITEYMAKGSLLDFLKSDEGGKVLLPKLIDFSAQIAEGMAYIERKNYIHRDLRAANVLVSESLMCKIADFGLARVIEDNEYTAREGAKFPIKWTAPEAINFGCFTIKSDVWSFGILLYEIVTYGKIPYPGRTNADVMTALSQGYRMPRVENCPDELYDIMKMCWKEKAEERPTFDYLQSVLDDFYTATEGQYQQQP

| Compound | IC50 (B16) [µM] | IC50 [3] [µM] | IC50 (MOLM-13) [µM] | inhibition [4] [%] | IC50 (HepG2) [µM] | IC50 (Jurkat) [µM] | inhibition [5] [%] | inhibition [6] [%] | IC50 (H22) [µM] | IC50 [7] [µM] | inhibition [8] [%] | IC50 [9] [µM] | further results |
| --- | --- | --- | --- | --- | --- | --- | --- | --- | --- | --- | --- | --- | --- |
| CC(C(=O)c1ccc(O)cc1)C1(O)C(=O)Nc2c(Cl)cc(Cl)cc21 (stereo not drawn) |  |  |  |  |  |  |  |  |  |  |  |  | Ki [1]: > 1 µM; Ki [2]: > 1 µM |
| O=[N+]([O-])c1ccc(CNc2cc(Br)cc3[nH]ncc23)cc1 | > 20 | 2.23 | > 20 | 87 | > 20 | > 20 | 63 | 93 | > 20 | 6.97 | 87 | > 20 |  |
| O=[N+]([O-])c1cc(Br)c(F)cc1CNc1cc(C(F)(F)F)cc2[nH]ncc12 | 13.8 | 1.46 | 4.27 | 85 | 1.96 | 2.82 | 31 | 88 | 1.85 | > 100 | 64 | 15 |  |
| O=[N+](O)c1c(Cl)cccc1CNc1cc(C(F)(F)F)cc2[nH]ncc12 | > 20 | 0.17 | 7.69 | 96 | > 20 | > 20 | 45 | 94 | > 20 | 60 | 69 | > 20 |  |
| FC(F)(F)c1cc(NC[C@H]2CCCN2)c2cn[nH]c2c1 | > 20 | 6.09 | > 20 | 55 | 16.2 | > 20 | 34 | 84 | 19.7 | 9.58 | 83 | > 20 |  |
| COc1cc(CNc2cc(Br)cc3[nH]ncc23)c([N+](=O)[O-])cc1OC | > 20 | 1.04 | > 20 | 87 | 2.97 | > 20 | 48 | 95 | 6.11 | 18.5 | 79 | 15.2 |  |
| NS(=O)(=O)NCCNc1nonc1/C(=N/O)Nc1ccc(F)c(Br)c1 [EPACADOSTAT] |  |  |  |  |  |  |  |  |  |  |  |  | inhibition in vivo at 30 mg/kg (CT26): 57.5% |
| NC(=O)Nc1ccc(-c2c[nH]c3cc(F)ccc23)cc1 |  |  |  |  |  |  |  |  |  |  |  |  | IC50 [1]: 0.078 µM; IC50 [2]: 0.049 µM |
| O[C@@H]1c2ccnn2CC[C@H]1[C@H]1c2ccccc2-c2cncn21 |  |  |  |  |  |  |  |  |  |  |  |  | IC50 [1]: 0.13 µM; IC50 [2]: 4.5 µM |
| O=[N+]([O-])c1ccc(Cl)cc1CNc1cc(C(F)(F)F)cc2[nH]ncc12 | 11.6 | 3.19 | 1.05 | 84 | 1.3 | 1.1 | 35 | 88 | 0.49 | 37.7 | 65 | 0.94 | Activity (HEK293): Non-Toxic |
| O=[N+]([O-])c1ccccc1CNc1cc(C(F)(F)F)cc2[nH]ncc12 | > 20 | 2.55 | 2.35 | 89 | 7.76 | > 20 | 35 | 95 | 9.01 | 13.9 | 76 | 7.58 | inhibition [10]: 27%; inhibition [11]: 35%; inhibition [12]: 66%; inhibition [13]: 31%; inhibition [14]: 33%; inhibition [15]: 12%; inhibition [16]: 0%; inhibition [17]: 100%; inhibition [18]: 78%; inhibition [19]: 61%; inhibition [20]: 50%; inhibition [21]: 78%; inhibition [22]: 96%; inhibition [23]: 33%; inhibition [24]: 4%; inhibition [25]: 93%; inhibition [26]: 23% |
| FC(F)(F)c1cc(NC[C@@H]2CCCCN2)c2cn[nH]c2c1 | > 20 | 8.05 | > 20 | 64 | 19.9 | > 20 | 32 | 88 | 21.7 | 18.7 | 81 | > 20 |  |
| O=[N+]([O-])c1cc(Cl)ccc1CNc1cc(C(F)(F)F)cc2[nH]ncc12 | > 20 | 1.7 | 4.13 | 90 | 5.82 | 8.04 | 50 | 93 | 10.3 | 18 | 77 | > 20 |  |
| O=C1NC(=O)c2c(NCc3ccccc3[N+](=O)[O-])cccc21 |  | > 100 |  | 17 |  |  | 11 | 25 |  | > 100 | 4 |  |  |
| Oc1ccc(CNc2cc(C(F)(F)F)cc3[nH]ncc23)cc1 |  | 2.55 |  | 75 |  |  | 37 | 91 |  | 36.7 | 81 |  |  |
| CS(=O)(=O)c1ccc(CNc2cc(C(F)(F)F)cc3[nH]ncc23)c([N+](=O)O)c1 | > 20 | 0.79 | > 20 | 96 | > 20 | > 20 | 63 | 98 | > 20 | 58 | 93 | > 20 |  |
| O=[N+]([O-])c1ccc(CNc2cc(C(F)(F)F)cc3[nH]ncc23)cc1 |  | > 100 |  | 47 |  |  | 52 | 64 |  | 61 | 61 |  |  |
| CNC(=O)c1cccc(CNc2cc(C(F)(F)F)cc3[nH]ncc23)c1 |  | 4.87 |  | 71 |  |  | 33 | 91 |  | > 100 | 46 |  |  |
| O=[N+]([O-])c1cccc(CNc2cc(Br)cc3[nH]ncc23)c1 | > 20 | 1.6 | > 20 | 91 | 23.6 | > 20 | 72 | 97 | > 20 | 7.95 | 95 | > 20 |  |
| O=C(O)c1cccc(CNc2cc(C(F)(F)F)cc3[nH]ncc23)c1 |  | 1.69 |  | 81 |  |  | 11 | 94 |  | > 100 | 17 |  |  |
| FC(F)(F)c1cc(NCC2CNC2)c2cn[nH]c2c1 |  | > 100 |  | 5 |  |  | 10 | 49 |  | > 100 | 22 |  |  |
